Data set [1] deals with ES-2 cell line. Nature of the data set: 72 hr cell viability assay (Alamar Blue), dose response IC50. Format: cell-based. The following applies: for anticancer activity (in words): 72 hr cell viability assay, ES-2 cells, relative to ferroptocide; for IC50: Homo sapiens, 72 hr, ES-2 cell line, Alamar Blue fluorescence, mean ± s.e.m., n ≥ 3. The procedure: 40 μL of media was added to each well of a 384-well tissue culture-treated plate. 3×100 nL of compound in DMSO was then pin-transferred from compound storage plates (2 mM stocks) into media-containing wells using the Platemate Plus at the UIUC High Throughput Screening Facility. A 100,000 cells/mL suspension of ES-2 cells was prepared, and 10 μL was added to each well for a final concentration of 1000 cells/well. Doxorubicin (100 μM final) was used as a positive control. Plates were sealed with gas-permeable seals and incubated at 37° C. for 72 h. After incubation, 5 μL of Alamar blue (440 μM resazurin in sterile PBS) was added and allowed to incubate for 3-4 h, until visible color change occurred. Fluorescence was measured in a Molecular Devices SpectraMax 3 (excitation=555 nm, emission=585 nm, emission cutoff=570 nm).
To a 384-well plate, 40 μL of 1.25× compound dilution or 1.25% DMSO-containing media was added (final volume of 1% DMSO). Concentrations of compounds tested were 100 μM to 100 nM. On each plate at least 3 technical replicates per compound were performed. Next, 10 μL of a 100,000 cells/mL suspension was added to each well, yielding a final concentration of 1,000 cells/well. To three wells in column 2 was added 1 μL of 10 mM doxorubicin (final concentration of 200 μM) as positive control of cell death. Plates were sealed with gas-permeable seals and incubated at 37° C. for 72 h. At that time, 5 μL of Alamar blue (440 μM resazurin in sterile PBS) was added and plates were incubated for 3-4 hours. Fluorescence was read on a Molecular Devices SpectraMax 3 (excitation=555 nm, emission=585 nm, emission cutoff=570 nm). Wells were normalized to the average of untreated wells (0% cell death). The data were plotted as compound concentration versus percent dead cells and fitted to a logistic-dose response curve using OriginPro 2015 (OriginLab, Northampton, Mass.). The data were generated in triplicate, and IC50 values are reported as the average of three separate experiments along with standard error of the mean.
Background: The colour change of resazurin is a common sign of viable cells or microbes.

Data set [2] is described as follows: In vitro glutathione assay (LC-MS). In kind it is physicochemical. The following applies: 100 μM compound, 5 mM glutathione, PBS, 37° C. The procedure: To an eppendorf tube added, 245 μL of 1×PBS, 5 μL of 10 mM DMSO stock of ferroptocide or P23 and 250 μL of reduced GSH (5 mM final concentration). Reactions were vortexed briefly and incubated at 37° C. Adduct formation was monitored at the indicated time points (0, 0.5, 1, 2, 3, 24 hr) by mixing an aliquot of 50 μL from the reaction mixture with 50 μL of MeOH before LC/MS analysis.

“Also recorded” adds a separate entry of the source.

As usually defined, the IC50 is the point on the concentration scale where inhibition reaches its midpoint.

`C#CCN1C(=O)C2CC=C([C@@H]3C[C@@H](OC(=O)CCl)[C@]4(C)[C@H](C)CC[C@]5(C[C@H](O)C(=O)[C@]54O)[C@H]3C)CC2C1=O` (some centres unmarked) [Compound P29]: the “anticancer activity (in words)” value in data set [1] was “retained anticancer activity similar to ferroptocide; also recorded: retain biological activity”.
Turning to `CC(=O)OCC(=O)O[C@@H]1C[C@@H](C2=CCn3c(=O)n(-c4ccccc4)c(=O)n3C2)[C@H](C)[C@@]23CC[C@@H](C)[C@]1(C)[C@]2(O)C(=O)[C@@H](O)C3` [Compound P24], in data set [1], the “anticancer activity (in words)” value is on record as “no anticancer activity” and the 50% inhibitory concentration (IC50) is more than 100 µM.
Take `CO[C@H]1C[C@@]23CC[C@@H](C)[C@@](C)([C@H](OC(C)=O)C[C@@H](C4=CCn5c(=O)n(-c6ccccc6)c(=O)n5C4)[C@@H]2C)[C@]3(O)C1=O` [Compound P21]: in data set [1], the “anticancer activity (in words)” value is reported as “eliminated activity” and the concentration for half-maximal inhibition (IC50) was more than 100 µM.
In the same order, the values of `CO[C@H]1C[C@@]23CC[C@@H](C)[C@@](C)([C@H](OC(=O)CCl)C[C@@H](C4=CCn5c(=O)n(-c6ccccc6)c(=O)n5C4)[C@@H]2C)[C@]3(O)C1=O` [Compound P19] are “did not change the activity” and 1.9 ± 0.1 µM.
As to `C[C@@H]1CC[C@@]23C[C@H](O)C(=O)[C@@]2(O)[C@]1(C)[C@H](OC(=O)CF)C[C@@H](C1=CCn2c(=O)n(-c4ccccc4)c(=O)n2C1)[C@@H]3C` [Compound P22], in data set [1], the “anticancer activity (in words)” value is “greatly diminished anticancer activity” and the IC50 came out at 34 ± 5.7 µM.
Take `C[C@@H]1CC[C@@]23C[C@H](O)C(=O)[C@@]2(O)[C@]1(C)[C@H](OC(=O)CCl)C[C@@H](C1=CCC2C(=O)N(c4ccccc4)C(=O)C2C1)[C@@H]3C` (some centres unmarked) [Compound P28]: in data set [1], the “anticancer activity (in words)” value was “minimal loss in activity; also recorded: retain biological activity”.
Take `CC(=O)O[C@H]1C[C@@]23CC[C@@H](C)[C@@](C)([C@H](OC(=O)CCl)C[C@@H](C4=CCn5c(=O)n(-c6ccccc6)c(=O)n5C4)[C@@H]2C)[C@]3(O)C1=O` [Compound P20]: in data set [1], the “anticancer activity (in words)” value was “did not change the activity” and the half-maximal inhibitory concentration (IC50) is 1.4 ± 0.5 µM.
As to `CC1=CC(C)=[N+]2C1=Cc1ccc(CCC(=O)NCCCn3cc(CN4C(=O)C5CC=C([C@@H]6C[C@@H](OC(=O)CCl)[C@]7(C)[C@H](C)CC[C@]8(C[C@H](O)C(=O)[C@]87O)[C@H]6C)CC5C4=O)nn3)n1[B-]2(F)F` (some centres unmarked) [Compound P30], the “anticancer activity (in words)” value in data set [1] is “retained anticancer activity similar to ferroptocide; also recorded: retain biological activity”.
As to `C[C@@H]1CC[C@@]23C[C@H](O)C(=O)[C@@]2(O)[C@]1(C)[C@H](OC(=O)CI)C[C@@H](C1=CCn2c(=O)n(-c4ccccc4)c(=O)n2C1)[C@@H]3C` [Compound P23], in data set [2], the “reactivity with excess glutathione (in words)” value is listed as “rapid reaction”. In data set [1], the “anticancer activity (in words)” value is “greater potency in cells” and the IC50 worked out at 0.24 ± 0.002 µM.
As for `CO[C@H]1C[C@@]23CC[C@@H](C)[C@@](C)([C@H](OC(=O)C(Cl)Cl)C[C@@H](C4=CCn5c(=O)n(-c6ccccc6)c(=O)n5C4)[C@@H]2C)[C@]3(O)C1=O` [Compound P25], in data set [1], the “anticancer activity (in words)” value is listed as “no anticancer activity” and the half-maximal inhibitory concentration (IC50) is more than 100 µM.
In the same order, the values of `CO[C@H]1C[C@@]23CC[C@@H](C)[C@@](C)([C@H](OC(=O)c4ccco4)C[C@@H](C4=CCn5c(=O)n(-c6ccccc6)c(=O)n5C4)[C@@H]2C)[C@]3(O)C1=O` [Compound P26] are “no anticancer activity” and more than 100 µM.

Values taken from patent US20220089602A1, “COMPOUNDS THAT INDUCE FERROPTIC CELL DEATH” (The Board of Trustees of the University of Illinois, priority 2019, published 2022).
